Results: ChEMBL document CHEMBL1148536, “Safrole oxide induces apoptosis by activating caspase-3, -8, and -9 in A549 human lung cancer cells” (Bioorg Med Chem Lett, 2006)
Activity calls are given as the source filed them.

Columns and labels:
Format in all cases: functional, cell-based
A549 [1] = assay: Effect on caspase 9 activation to initiate apoptosis in A549 human lung cancer cell line
Caspase-8 (Homo sapiens) = Caspase-8 (Homo sapiens) (UniProt Q14790); assay: Effect on caspase 8 activation to initiate apoptosis in A549 human lung cancer cell line
Caspase-8 (Homo sapiens), sequence (Q14790 217-374 limits assumed): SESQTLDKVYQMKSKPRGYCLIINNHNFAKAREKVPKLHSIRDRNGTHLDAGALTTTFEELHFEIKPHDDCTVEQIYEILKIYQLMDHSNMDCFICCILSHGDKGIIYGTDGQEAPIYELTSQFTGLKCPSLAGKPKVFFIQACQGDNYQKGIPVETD
Caspase-8 (Homo sapiens), sequence (Q14790 385-479 limits assumed): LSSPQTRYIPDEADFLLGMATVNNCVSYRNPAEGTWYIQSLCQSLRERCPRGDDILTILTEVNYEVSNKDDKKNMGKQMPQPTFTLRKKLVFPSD

A549 [2] = assay: Effect on caspase 3 activation to initiate apoptosis in A549 human lung cancer cell line

Measured: Activity

c1cc2c(cc1CC1CO1)OCO2 (stereo not drawn)
active: all assays above
